How the values were obtained:
[1] = biological target: C-C chemokine receptor type 8 (Homo sapiens, UniProt P51685); test: Antagonist activity at CCR8 receptor; assay type: functional
[2] = Lipophilicity, log D at pH 7.4; conditions: buffer
[3] = biological target: Voltage-gated inwardly rectifying potassium channel KCNH2 (Homo sapiens, UniProt Q12809); test: Displacement of [3H]dofetilide from human recombinant ERG potassium channel expressed in HEK293 cells by patch clamp method
Voltage-gated inwardly rectifying potassium channel KCNH2, sequence (Q12809 whole entry): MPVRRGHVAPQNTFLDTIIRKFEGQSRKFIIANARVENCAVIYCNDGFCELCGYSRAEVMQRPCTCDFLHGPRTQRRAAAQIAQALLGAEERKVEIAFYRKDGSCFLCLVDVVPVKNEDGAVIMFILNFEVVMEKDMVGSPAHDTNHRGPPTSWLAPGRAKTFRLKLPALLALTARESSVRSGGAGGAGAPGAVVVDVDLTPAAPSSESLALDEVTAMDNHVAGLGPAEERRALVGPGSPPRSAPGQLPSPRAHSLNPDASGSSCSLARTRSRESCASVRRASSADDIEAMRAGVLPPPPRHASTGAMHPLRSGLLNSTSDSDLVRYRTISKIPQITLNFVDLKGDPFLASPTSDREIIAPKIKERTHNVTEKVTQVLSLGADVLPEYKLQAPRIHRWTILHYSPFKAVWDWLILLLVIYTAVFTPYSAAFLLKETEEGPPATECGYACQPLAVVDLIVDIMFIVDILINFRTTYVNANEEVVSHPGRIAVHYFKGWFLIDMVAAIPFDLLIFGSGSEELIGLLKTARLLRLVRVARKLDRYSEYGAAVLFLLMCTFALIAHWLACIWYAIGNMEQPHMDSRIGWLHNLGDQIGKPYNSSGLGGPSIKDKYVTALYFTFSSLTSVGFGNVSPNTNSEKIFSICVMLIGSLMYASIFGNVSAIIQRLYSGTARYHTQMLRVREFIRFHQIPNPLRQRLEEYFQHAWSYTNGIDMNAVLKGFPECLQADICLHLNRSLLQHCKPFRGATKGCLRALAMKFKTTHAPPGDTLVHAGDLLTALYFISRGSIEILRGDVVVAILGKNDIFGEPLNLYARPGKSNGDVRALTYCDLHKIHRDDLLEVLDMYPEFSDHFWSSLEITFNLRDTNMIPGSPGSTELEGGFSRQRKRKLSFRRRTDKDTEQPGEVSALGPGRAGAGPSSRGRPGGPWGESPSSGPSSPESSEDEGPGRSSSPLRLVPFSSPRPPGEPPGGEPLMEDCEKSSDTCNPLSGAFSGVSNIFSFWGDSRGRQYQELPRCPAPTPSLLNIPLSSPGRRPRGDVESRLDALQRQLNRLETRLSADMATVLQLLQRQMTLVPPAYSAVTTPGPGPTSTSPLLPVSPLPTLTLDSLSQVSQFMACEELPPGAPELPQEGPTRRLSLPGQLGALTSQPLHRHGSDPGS

C-C chemokine receptor type 8, sequence (P51685 whole entry): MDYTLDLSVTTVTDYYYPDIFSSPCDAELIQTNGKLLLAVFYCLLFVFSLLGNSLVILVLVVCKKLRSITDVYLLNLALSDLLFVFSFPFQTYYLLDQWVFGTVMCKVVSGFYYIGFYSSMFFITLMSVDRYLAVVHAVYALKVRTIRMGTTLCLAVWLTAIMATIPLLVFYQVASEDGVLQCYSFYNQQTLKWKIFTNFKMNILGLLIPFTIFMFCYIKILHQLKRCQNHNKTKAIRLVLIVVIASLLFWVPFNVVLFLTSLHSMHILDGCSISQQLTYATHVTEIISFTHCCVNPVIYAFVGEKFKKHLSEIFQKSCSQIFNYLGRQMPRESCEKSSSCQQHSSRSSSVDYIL

SMILES | IC50 [1] [nM] | logD [2] | IC50 [3] [nM]
O=C(c1cc[n+]([O-])cc1)N1CCC2(CCN(Cc3cccc(Oc4ccccc4)c3)CC2)CC1 | 166 | 1.2 | –
COc1ccccc1Oc1ccccc1CN1CCC2(CC1)CCN(C(=O)c1cccc[n+]1[O-])CC2 | 79.4 | 0.5 | 1910
COc1ccccc1Oc1ccccc1CN1CCC2(CC1)CCN(C(=O)c1ccncc1)CC2 | 12 | 1.8 | –
COc1ccccc1Oc1cccc(CN2CCC3(CC2)CCN(C(=O)c2ccc(Cl)cc2)CC3)c1 | 12 | 3.5 | –
O=C(c1ccc(Cl)cc1)N1CCC2(CCN(Cc3ccccc3Oc3ccccc3)CC2)CC1 | – | 3.5 | –
O=C(c1ccncc1)N1CCC2(CCN(Cc3ccccc3Oc3ccccc3)CC2)CC1 | 33.1 | – | –
COc1ccccc1Oc1ccccc1CN1CCC2(CC1)CCN(C(=O)c1cc[n+]([O-])cc1)CC2 | 115 | 0.5 | –
O=C(c1ccncn1)N1CCC2(CCN(Cc3cccc(Oc4ccccc4)c3)CC2)CC1 | 27.5 | 2.4 | –
O=C(c1ccc(O)cc1OC[C@@H](O)CN1CCC2(CC1)Cc1cc(Cl)ccc1O2)N1C[C@H](O)CO1 | – | 1.55 | 25.1

Source: ChEMBL document CHEMBL1142336, “Overcoming undesirable HERG potency of chemokine receptor antagonists using baseline lipophilicity relationships” (J Med Chem, 2008)
